Reference: patent US8791303B2, “Herbicides” (Syngenta Limited, priority 2009, dated 2014)

What was measured:
Format in all cases: in vivo
Avena fatua (AVEFA) [1] = assay: Example A glasshouse herbicide test, pre-emergence, AVEFA; settings: Rate 250 g/ha, sprayed after cultivation for one day, evaluated after 13 days; for pest or weed control at 250 g/ha: Avena fatua, pre-emergence, 312 h, read-out: Pre-Emergence Activity AVEFA (100=total damage to plant; 0=no damage to plant)
Protocol: (§1) Seeds of a variety of test species are sown in standard soil in pots. After cultivation for one day (pre-emergence) or after 8 days cultivation (post-emergence) under controlled conditions in a glasshouse (at 24/16° C., day/night; 14 hours light; 65% humidity), the plants are sprayed with an aqueous spray solution derived from the formulation of the technical active ingredient in acetone/water (50:50) solution containing 0.5% Tween 20 (polyoxyethelyene sorbitan monolaurate, CAS RN 9005-64-5).
(§2) The test plants are then grown in a glasshouse under controlled conditions in a glasshouse (at 24/16° C., day/night; 14 hours light; 65% humidity) and watered twice daily. After 13 days for pre and post-emergence, the test is evaluated (100=total damage to plant; 0=no damage to plant).
(§3) Lolium perenne (LOLPE), Alopecurus myosuroides (ALOMY), Echinochloa crus-galli (ECHCG), Avena fatua (AVEFA)

[2] = test system: Alopecurus myosuroides (ALOMY); assay: Example A glasshouse herbicide test, pre-emergence, ALOMY; settings: Rate 250 g/ha, sprayed after cultivation for one day, evaluated after 13 days; for pest or weed control at 250 g/ha: Alopecurus myosuroides, pre-emergence, 312 h, read-out: Pre-Emergence Activity ALOMY (100=total damage to plant; 0=no damage to plant)
Protocol: as §1, §2, §3

Lolium perenne (LOLPE) [3] = assay: Example A glasshouse herbicide test, post-emergence, LOLPE; settings: Rate 250 g/ha, sprayed after 8 days cultivation, evaluated after 13 days; for pest or weed control at 250 g/ha: Lolium perenne, post-emergence, 312 h, read-out: Post-Emergence Activity LOLPE (100=total damage to plant; 0=no damage to plant)
Protocol: as §1, §2, §3

Lolium perenne (LOLPE) [4] = assay: Example A glasshouse herbicide test, pre-emergence, LOLPE; settings: Rate 250 g/ha, sprayed after cultivation for one day, evaluated after 13 days; for pest or weed control at 250 g/ha: Lolium perenne, pre-emergence, 312 h, read-out: Pre-Emergence Activity LOLPE (100=total damage to plant; 0=no damage to plant)
Protocol: as §1, §2, §3

[5] = test system: Echinochloa crus-galli (ECHCG); assay: Example A glasshouse herbicide test, pre-emergence, ECHCG; settings: Rate 250 g/ha, sprayed after cultivation for one day, evaluated after 13 days; for pest or weed control at 250 g/ha: Echinochloa crus-galli, pre-emergence, 312 h, read-out: Pre-Emergence Activity ECHCG (100=total damage to plant; 0=no damage to plant)
Protocol: as §1, §2, §3

Avena fatua (AVEFA) [6] = assay: Example A glasshouse herbicide test, post-emergence, AVEFA; settings: Rate 250 g/ha, sprayed after 8 days cultivation, evaluated after 13 days; for pest or weed control at 250 g/ha: Avena fatua, post-emergence, 312 h, read-out: Post-Emergence Activity AVEFA (100=total damage to plant; 0=no damage to plant)
Protocol: as §1, §2, §3

[7] = test system: Echinochloa crus-galli (ECHCG); assay: Example A glasshouse herbicide test, post-emergence, ECHCG; settings: Rate 250 g/ha, sprayed after 8 days cultivation, evaluated after 13 days; for pest or weed control at 250 g/ha: Echinochloa crus-galli, post-emergence, 312 h, read-out: Post-Emergence Activity ECHCG (100=total damage to plant; 0=no damage to plant)
Protocol: as §1, §2, §3

[8] = test system: Alopecurus myosuroides (ALOMY); assay: Example A glasshouse herbicide test, post-emergence, ALOMY; settings: Rate 250 g/ha, sprayed after 8 days cultivation, evaluated after 13 days; for pest or weed control at 250 g/ha: Alopecurus myosuroides, post-emergence, 312 h, read-out: Post-Emergence Activity ALOMY (100=total damage to plant; 0=no damage to plant)
Protocol: as §1, §2, §3

[9] = test system: Winter Wheat variety 'Hereward'; assay: Example B crop damage test, post-emergence, unsafened wheat; settings: Rate 250 g/ha; post-emergence spray after 8 days cultivation; no safener; evaluated after 13 days
Protocol: Seeds of the Winter Wheat variety ‘Hereward’ were sown in standard soil in pots. After 8 days cultivation under controlled conditions in a glasshouse (at 24/16° C., day/night; 14 hours light; 65% humidity), the plants were sprayed post-emergence with an aqueous spray solution derived from the formulation of the technical active ingredient in acetone/water (50:50) solution containing 0.5% Tween 20 (polyoxyethelyene sorbitan monolaurate, CAS RN 9005-64-5).
(§4) The test plants were then grown in a glasshouse under controlled conditions in a glasshouse (at 24/16° C., day/night; 14 hours light; 65% humidity) and watered twice daily. After 13 days for pre and post-emergence, the test was evaluated (100=total damage to plant; 0=no damage to plant).

[10] = test system: Winter Wheat variety 'Hereward'; assay: Example B crop damage test, post-emergence, wheat seed treated with safener cloquintocet mexyl; settings: Rate 250 g/ha; post-emergence spray 8 days after sowing; seed treated with cloquintocet mexyl 0.5 g/kg dry seed; evaluated after 13 days
Protocol: Seeds of the Winter Wheat variety ‘Hereward’ were seed treated with a wettable powder formulation of the cereal herbicide safener, cloquintocet mexyl, at a rate of 0.5 grams per kilogram of dry seed prior to the initiation of glasshouse testing. One seed was sown per 1.5 inch plastic pot into a sandy loam soil at a depth of 1 cm, 8 days prior to application of the test compounds and was watered and grown under controlled conditions in a glasshouse (at 24/16° C., day/night; 14 hours light; 65% humidity). The plants were sprayed post-emergence with an aqueous spray solution derived from the formulation of the technical active ingredient in acetone/water (50:50) solution containing 0.5% Tween 20 (polyoxyethelyene sorbitan monolaurate, CAS RN 9005-64-5).
as §4

Work on Cc1cc(C)c(C2=C(OC(=O)C(C)(C)C)CC(Cc3ccccc3C)C2=O)c(C)c1 (centres unmarked) [Compound B10] yielded a pest or weed control at 250 g/ha (Avena fatua (AVEFA) [1]) of 20%, a pest or weed control at 250 g/ha [2] of 30% and a pest or weed control at 250 g/ha (Lolium perenne (LOLPE) [3]) of 90%. For the same compound, the pest or weed control at 250 g/ha (Lolium perenne (LOLPE) [4]) was 100%, the pest or weed control at 250 g/ha [5] was 30% and the pest or weed control at 250 g/ha (Avena fatua (AVEFA) [6]) was 30%. The pest or weed control at 250 g/ha [7] was 40% and the pest or weed control at 250 g/ha [8] was 50%.
Compound Cc1cc(C)c(C2=C(OC(=O)C(C)(C)C)CC(Cc3cccc(Oc4ccccc4)c3)C2=O)c(C)c1 (centres unmarked) [Compound B7] has a pest or weed control at 250 g/ha (Avena fatua (AVEFA) [1]) of 0%, a pest or weed control at 250 g/ha [2] of 30% and a pest or weed control at 250 g/ha (Lolium perenne (LOLPE) [3]) of 20%. For the same compound, the pest or weed control at 250 g/ha (Lolium perenne (LOLPE) [4]) was 20%, the pest or weed control at 250 g/ha [5] was 0% and the pest or weed control at 250 g/ha (Avena fatua (AVEFA) [6]) was 0%. It also gave a pest or weed control at 250 g/ha [7] of 20% and a pest or weed control at 250 g/ha [8] of 20%.
Work on Cc1cc(C)c(C2=C(OC(=O)C(C)(C)C)CC(Cc3ccccc3)C2=O)c(C)c1 (centres unmarked) [Compound B12] yielded a pest or weed control at 250 g/ha (Avena fatua (AVEFA) [1]) of 20%, a pest or weed control at 250 g/ha [2] of 30% and a pest or weed control at 250 g/ha (Lolium perenne (LOLPE) [3]) of 90%. For the same compound, the pest or weed control at 250 g/ha (Lolium perenne (LOLPE) [4]) was 90%, the pest or weed control at 250 g/ha [5] was 40% and the pest or weed control at 250 g/ha (Avena fatua (AVEFA) [6]) was 30%. It also gave a pest or weed control at 250 g/ha [7] of 50% and a pest or weed control at 250 g/ha [8] of 60%.
For Cc1cc(C)c(C2=C(OC(=O)C(C)(C)C)C(CC3CCC(=NO)CC3)CC2=O)c(C)c1 (centres unmarked) [Compound B5], the pest or weed control at 250 g/ha (Avena fatua (AVEFA) [1]) was 40%, the pest or weed control at 250 g/ha [2] was 70% and the “Winter Wheat (Hereward) damage (100=total damage to plant; 0=no damage to plant)” value [9] was 40. For the same compound, the pest or weed control at 250 g/ha (Lolium perenne (LOLPE) [4]) was 90%, the “Winter Wheat (Hereward) + cloquintocet mexyl damage (100=total damage to plant; 0=no damage to plant)” value [10] was 10 and the pest or weed control at 250 g/ha [5] was 70%.
Cc1cccc(CC2CC(OC(=O)C(C)(C)C)=C(c3c(C)cc(C)cc3C)C2=O)c1 (centres unmarked) [Compound B13] gave a pest or weed control at 250 g/ha (Avena fatua (AVEFA) [1]) of 20%, a pest or weed control at 250 g/ha [2] of 40% and a pest or weed control at 250 g/ha (Lolium perenne (LOLPE) [3]) of 80%. The pest or weed control at 250 g/ha (Lolium perenne (LOLPE) [4]) was 70%, the pest or weed control at 250 g/ha [5] was 60% and the pest or weed control at 250 g/ha (Avena fatua (AVEFA) [6]) was 30%. The pest or weed control at 250 g/ha [7] was 60% and the pest or weed control at 250 g/ha [8] was 60%.
In the case of “2,2-dimethyl-propionic acid 4-(4-fluoro-benzyl)-3-oxo-2-(2,4,6-trimethyl-phenyl)-cyclopent-1-enyl ester [Compound B9]”, the “Pre-Emergence Activity AVEFA (100=total damage to plant; 0=no damage to plant)” value (Avena fatua (AVEFA) [1]) is reported as 40, the “Pre-Emergence Activity ALOMY (100=total damage to plant; 0=no damage to plant)” value [2] is reported as 90 and the “Post-Emergence Activity LOLPE (100=total damage to plant; 0=no damage to plant)” value (Lolium perenne (LOLPE) [3]) is reported as 80. The “Pre-Emergence Activity LOLPE (100=total damage to plant; 0=no damage to plant)” value (Lolium perenne (LOLPE) [4]) was 100, the “Pre-Emergence Activity ECHCG (100=total damage to plant; 0=no damage to plant)” value [5] was 70 and the “Post-Emergence Activity AVEFA (100=total damage to plant; 0=no damage to plant)” value (Avena fatua (AVEFA) [6]) was 20. The “Post-Emergence Activity ECHCG (100=total damage to plant; 0=no damage to plant)” value [7] was 80 and the “Post-Emergence Activity ALOMY (100=total damage to plant; 0=no damage to plant)” value [8] was 70.
Cc1cc(C)c(C2=C(OC(=O)C(C)(C)C)CC(Cc3ccc(C#N)cc3)C2=O)c(C)c1 (centres unmarked) [Compound B14] was tested, and the pest or weed control at 250 g/ha (Avena fatua (AVEFA) [1]) was 10%, the pest or weed control at 250 g/ha [2] was 60% and the pest or weed control at 250 g/ha (Lolium perenne (LOLPE) [3]) was 60%. It also gave a pest or weed control at 250 g/ha (Lolium perenne (LOLPE) [4]) of 80%, a pest or weed control at 250 g/ha [5] of 50% and a pest or weed control at 250 g/ha (Avena fatua (AVEFA) [6]) of 50%. For the same compound, the pest or weed control at 250 g/ha [7] was 70% and the pest or weed control at 250 g/ha [8] was 70%.
Compound Cc1cc(C)c(C2=C(OC(=O)C(C)(C)C)CC(Cc3ccc(F)cc3)C2=O)c(C)c1 (centres unmarked) [Compound B8] has a pest or weed control at 250 g/ha (Avena fatua (AVEFA) [1]) of 30%, a pest or weed control at 250 g/ha [2] of 70% and a pest or weed control at 250 g/ha (Lolium perenne (LOLPE) [3]) of 70%. For the same compound, the pest or weed control at 250 g/ha (Lolium perenne (LOLPE) [4]) was 100%, the pest or weed control at 250 g/ha [5] was 50% and the pest or weed control at 250 g/ha (Avena fatua (AVEFA) [6]) was 20%. The pest or weed control at 250 g/ha [7] was 40% and the pest or weed control at 250 g/ha [8] was 40%.
